The source of these data is EP3833345B1, “SMALL MOLECULE-INHIBITORS OF 6-PHOSPHOFRUCTO-1-KINASE FOR REDUCING LACTATE GENERATION BY CANCER CELLS” (Kemijski Institut, priority 2018, dated 2020).

What all share (format): cell-based
Data set [1] deals with MDA-MB-231 cells. Nature of the data set: total cell numbers of MDA-MB-231 cells at end of incubation. Conditions: single addition, different concentrations. The procedure:
(§1) Inhibitors No. 23, 29, 30 and 31 were tested for preventing lactate generation by the MDA-MB-231 cells. […] No significant discrepancies of total cell numbers were observed (Figure 14e) due to the different concentrations of inhibitors in the medium. […] The average percent of dead MDA-MB-231 cells in the control and in the presence of different concentrations of inhibitors were as follows: inh. 23 (2,98±0,2%), inh. 29 (3,37±0,39%), inh. 30 (3,4±0,21%), inh. 31 (6,87±0,44%). Additionally, cytotoxicity of inh. 3 (7,2±0,47%) and 9 (6,59±0,29%) for MDA-MB-231 cells were also determined. No dose dependent decrease of survival was observed by any inhibitor.
(§2) In MDA-MB-231 calls similar results to those found in Caco-2 cells were observed. […] No significant cytostatic (Figure 17f) or cytotoxic effect of inhibitors could be detected after 92 hours of incubation despite of sequential addition of various concentrations of inhibitors. The following average percentages of dead cells were perceived in the medium without and with inh. 3 (2,05±0,18%), inh. 9 (1,85±0,05%), inh. 23 (2,20±0,15%), inh. 29 (1,54±0,16%) and inh. 30 (2,00±0,18%). No detrimental effects of increased inhibitors concentrations on cell deaths have been observed.

In data set [2] the test system is Caco-2 cells. Nature of the data set: lactate excretion by Caco-2 cells. The settings on record: single addition, different concentrations (20-80 µM). On the procedure:
Preliminary in vivo tests were run by measuring lactate production by three different tumorigenic cell lines. […] For the experiment, the following tumorigenic cells lines originating from different tumours were tested: Caco-2 cells (Figure 10a), originating from colorectal adenoma carcinoma; COLO 829 cells (Figure 10b), isolated from melanoma; and MDA-MB-231 cells (Figure 10c) derived from metastatic phase of mammary/breast cancer.
(§3) Lactate generation, growth yield and survival under normal and inhibitory conditions of three different tumorigenic cells lines were determined in more detailed measurements. […] Cytotoxicity was measured by the Lactate dehydrogenase (LDH) kit (Roche).
Therefore, the influence of selected inhibitors was assessed by sequential re-insertion of low concentrations of inhibitors at indicated time points. The inhibitors were first added to the medium 8 hours after the inoculation followed by periodically additions at 24-hour intervals (marked by arrows).

Data set [3] concerns COLO 829 cells. Nature of the data set: cytotoxicity in COLO 829 cells (LDH kit). The procedure:
as §3

The test system of data set [4] is MDA-MB-231 cells. In words: cytotoxicity in MDA-MB-231 cells (LDH kit). The procedure: as §3
Inhibitors No. 23, 29, 30 and 31 were tested for preventing lactate generation by the MDA-MB-231 cells.

Data set [5] concerns MDA-MB-231 cells. Nature of the data set: lactate excretion by MDA-MB-231 cells. The settings on record: single addition, different concentrations. The procedure: (§4) Preliminary in vivo tests were run by measuring lactate production by three different tumorigenic cell lines. Again, 100 µM concentrations of tested compounds have been added to the medium. For the experiment, the following tumorigenic cells lines originating from different tumours were tested: Caco-2 cells (Figure 10a), originating from colorectal adenoma carcinoma; COLO 829 cells (Figure 10b), isolated from melanoma; and MDA-MB-231 cells (Figure 10c) derived from metastatic phase of mammary/breast cancer. All adherent cell lines were grown in the RPMI 1640 GlutaMAX substrate (Thermo Fisher) supplemented with 10% FBS.
as §1
(§5) A decrease in inhibitory effectiveness of some compounds was observed after certain period of time (Example 11). […] Therefore, the influence of selected inhibitors was assessed by sequential re-insertion of low concentrations of inhibitors at indicated time points. The inhibitors were first added to the medium 8 hours after the inoculation followed by periodically additions at 24-hour intervals (marked by arrows).
as §2

The subject of data set [6] is Caco-2 cells. In words: cytotoxicity in Caco-2 cells (lactate dehydrogenase (LDH) kit). On the procedure: as §3
The subject of data set [7] is COLO 829 cells. Nature of the data set: lactate excretion by COLO 829 cells. The procedure:
as §4
On the basis of preliminary results, inhibitors No. 23, 29, 30 and 31 were tested on COLO 829 cells. […] No significant discrepancies of total cell numbers in respect to the control were observed due to the different concentrations of inhibitors in the medium (Figure 13e). The average percent of dead COLO 829 cells in the control and in the presence of different concentrations of inhibitors were as follows: inh. 23 (9,23±0,6%), inh. 29 (9,31±0,73%), inh. 30 (8,27±0,49%), inh. 31 (8,26±0,38%). Additionally, cytotoxicity of inh. 3 (5,01±1,08%) and 9 (3,65±0,78%) for COLO 829 cells were also determined. No dose dependent decrease of survival was observed by any inhibitor.
as §5
No significant cytostatic (Figure 16f) of cytotoxic effect of inhibitors could be detected after 92 hours of incubation despite of sequential addition of various concentrations of inhibitors. The following average percentages of dead cells were perceived in the medium without and media with inh. 3 (1,95±0,15%) inh. 9 (1,70±0,14%), inh. 23 (2,40±0,09%), inh. 29 (1,66±0,25%) and inh. 30 (1,38±0,18%). No detrimental effects of increased inhibitors concentrations on cell deaths have been observed.

Data set [8] relates to Caco-2 cells. In words: total cell numbers of Caco-2 cells at end of incubation. Conditions: single addition, end of incubation (92 hours). On the procedure:
as §3

[9] abbreviates: sequential addition at 24-hour intervals, 92 hours, average over medium without and with inhibitor.
[10] abbreviates: single addition, average over control and different concentrations of inhibitor.

On to `O=C(CCS(=O)(=O)c1ccc(Cl)cc1)Nc1nnc(-c2ccno2)o1` [Inhibitor No. 29, 3-(4-chlorophenyl)sulfonyl-N-(5-isoxazol-5-yl-1,3,4-oxadiazol-2-yl)propanamide], for which the “total cell numbers, MDA-MB-231” value in data set [1] was “dose dependent decrease of cell numbers”. Also, the “lactate generation by Caco-2 cells” value in data set [2] is reported as “effectively reduced the lactate accumulation in the medium in a dose dependent manner”. Also, the “average percentages of dead cells, COLO 829, sequential re-insertion” value in data set [3] (setting [9]) is 1,66±0,25%. Besides, the “average percent of dead COLO 829 cells” value in data set [3] (setting [10]) was 9,31±0,73%. In data set [4] (setting [9]), the “average percentages of dead cells, MDA-MB-231, sequential re-insertion” value is 1,54±0,16%. The “average percent of dead MDA-MB-231 cells” value in data set [4] (setting [10]) is 3,37±0,39%. Moreover, in data set [5], the “lactate excretion by MDA-MB-231 cells” value is “dose dependent inhibition of lactate excretion”. The “average percentages of dead cells, Caco-2, sequential re-insertion” value in data set [6] (setting [9]) was 4,57±0,04%. The “average percent of dead cells, Caco-2” value in data set [6] (setting [10]) is on record as 4,95±0,27%. Besides, in data set [7] (inhibitor added 8 hours after inoculation, then at 24-hour intervals, low concentrations (from 10 µM)), the “lactate formation in COLO 829 cells, sequential re-insertion” value is recorded as “slightly weaker inhibitions”. Moreover, the “lactate excretion by COLO 829 cells” value in data set [7] (single addition, different concentrations) is recorded as “strongest reductions of lactate excretion”. For the same molecule, the “total cell numbers, Caco-2” value in data set [8] was “minor dose dependent reductions in total cell numbers”.
